Consider 4 molecules from patent publication US6509344B1, “Indenoisoquinolines as antineoplastic agents” (The United States of America as represented by the …, priority 1998, dated 2003).

For one data set, the system named is HCT-116. Briefly: NCI human cancer cell line screen (COMPARE screening), Colon HCT-116. Type of data set: cell-based. Conditions: HCT-116, concentration causing 50% growth inhibition, read-out: Cytotoxicity (G150 in μM) Colon HCT-116. The essentials: (§1)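 Antiproliferative activity was measured in the NCI in vitro screen, with each compound tested against approximately 55 human cancer cell lines of diverse tumor origin.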

A further data set deals with human topoisomerase II. Briefly: Topoisomerase II-mediated DNA cleavage assay (5'-end-labeled human c-myc DNA). Type of data set: biochemical.
The next data set concerns UACC-62. Briefly: NCI human cancer cell line screen (COMPARE screening), Melanoma UACC-62. Conditions: UACC-62, concentration causing 50% growth inhibition, read-out: Cytotoxicity (G150 in μM) Melanoma UACC-62. The format is cell-based. An outline of the steps:
as §1

The test system of a further data set is SF-539. Briefly: NCI human cancer cell line screen (COMPARE screening), CNS SF-539. The format is cell-based. The following applies: SF-539; concentration causing 50% growth inhibition; read-out: Cytotoxicity (G150 in μM) CNS SF-539. The essentials:
as §1

The subject of a further data set is SN12C. Briefly: NCI human cancer cell line screen (COMPARE screening), Renal SN12C. Type of data set: cell-based. The following applies: SN12C, concentration causing 50% growth inhibition, read-out: Cytotoxicity (G150 in μM) Renal SN12C. The essentials: as §1
For a further data set, the system named is supercoiled SV40 DNA. Briefly: SV40 DNA unwinding assay. Type of data set: biochemical. Conditions: for DNA unwinding: supercoiled DNA in the presence of topoisomerase I. As to the method:
With some of the compounds (e.g. 27), the activity seemed to increase initially as the concentration was increased, but then it declined at higher concentrations. […] The unwinding assay using supercoiled DNA in the presence of topoisomerase I is a simple procedure to detect DNA intercalation.
After electrophoresis, DNA bands were stained in 10 μg/mL of ethidium bromide and visualized by transillumination with UV light (300 nm).

Data set [1] deals with approximately 55 different cancer cell lines of diverse tumor origins. Briefly: NCI screen mean graph midpoint over all cell lines tested. The following applies: for IC50: average GI50 for all cell lines tested (approximately 55), values outside test range taken as 10^-8 or 10^-4 molar, read-out: MGM (mean graph midpoint). The format is cell-based, human.
The target of data set [2] is T1, topoisomerase I cleavage complexes (Homo sapiens, UniProt P11387).
T1 sequence (P11387 1-765): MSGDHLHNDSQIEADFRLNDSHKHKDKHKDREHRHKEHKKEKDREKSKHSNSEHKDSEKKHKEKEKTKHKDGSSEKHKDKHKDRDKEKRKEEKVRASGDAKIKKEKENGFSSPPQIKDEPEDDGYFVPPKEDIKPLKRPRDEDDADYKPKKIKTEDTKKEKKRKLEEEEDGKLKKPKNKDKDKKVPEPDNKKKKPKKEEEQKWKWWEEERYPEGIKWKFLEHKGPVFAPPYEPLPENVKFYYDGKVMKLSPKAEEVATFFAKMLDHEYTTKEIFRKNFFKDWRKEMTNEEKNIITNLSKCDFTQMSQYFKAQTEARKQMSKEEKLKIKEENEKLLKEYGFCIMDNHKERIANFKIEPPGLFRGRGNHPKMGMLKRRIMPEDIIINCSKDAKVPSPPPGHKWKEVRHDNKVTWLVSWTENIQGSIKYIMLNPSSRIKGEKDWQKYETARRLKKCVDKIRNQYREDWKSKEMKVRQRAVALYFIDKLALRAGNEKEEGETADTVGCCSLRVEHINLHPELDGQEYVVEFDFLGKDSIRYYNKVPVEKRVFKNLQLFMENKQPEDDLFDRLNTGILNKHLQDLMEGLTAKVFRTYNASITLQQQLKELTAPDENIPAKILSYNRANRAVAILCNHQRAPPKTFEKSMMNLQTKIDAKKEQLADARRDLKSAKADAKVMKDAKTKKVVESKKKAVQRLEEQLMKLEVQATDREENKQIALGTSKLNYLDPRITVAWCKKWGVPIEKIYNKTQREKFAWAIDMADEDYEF
Briefly: Salt reversal of topoisomerase I cleavage complexes. The following applies: increasing salt concentration. The format is biochemical.

The subject of the next data set is HOP-62. Briefly: NCI human cancer cell line screen (COMPARE screening), Lung HOP-62. Conditions: HOP-62, concentration causing 50% growth inhibition, read-out: Cytotoxicity (G150 in μM) Lung HOP-62. Type of data set: cell-based. The essentials:
as §1

For a further data set, the target named is T2, topoisomerase I (Homo sapiens, UniProt P11387).
T2 sequence (P11387 1-765): T1 sequence (P11387 1-765)
Briefly: Topoisomerase I-mediated DNA cleavage assay (3'-end-labeled 161 bp pBluescript SK(-) fragment). The format is biochemical. Conditions: for Top 1 Cleavage: relative to the activity of 1 μM camptothecin. An outline of the steps:
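A 3′-end ³²P-labeled 161 bp Pvu II/Hind III pBluescript SK(−) fragment was incubated with topoisomerase I and drug for 15 min at 30° C, then stopped with 0.5% SDS. Cleavage products were resolved on a denaturing 16% polyacrylamide/7 M urea gel at 51° C and read by phosphorimaging.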

The next data set relates to DU-145. Briefly: NCI human cancer cell line screen (COMPARE screening), Prostate DU-145. The format is cell-based. Conditions: DU-145, concentration causing 50% growth inhibition, read-out: Cytotoxicity (G150 in μM) Prostate DU-145. An outline of the steps: as §1
In a further data set the test system is MDA-MB-435. Briefly: NCI human cancer cell line screen (COMPARE screening), Breast MDA-MB-435. Conditions: MDA-MB-435, concentration causing 50% growth inhibition, read-out: Cytotoxicity (G150 in μM) Breast MDA-MB-435. Type of data set: cell-based. An outline of the steps: as §1
In another data set the test system is OVCAR-3. Briefly: NCI human cancer cell line screen (COMPARE screening), Ovarian OVCAR-3. The format is cell-based. Conditions: Homo sapiens; OVCAR-3; concentration causing 50% growth inhibition; read-out: Cytotoxicity (G150 in μM) Ovarian OVCAR-3. An outline of the steps:
as §1

Molecules are shown by their SMILES. “Also recorded” adds a separate entry of the source. Read-outs that look alike come from different tables or passages of the source.

Usually melting point stands for the temperature of the solid-liquid transition.

As to `COc1cc2c3c(n(C)c(=O)c2cc1OC)-c1cc2c(cc1C3=O)OCO2` [Compound 1, reference compound], the IC50 with HCT-116 was determined as 35 µM; in the data set with UACC-62, 4.2 µM; in the data set with SF-539, 41 µM; in the data set on SN12C, 68 µM; in data set [1], 20 µM; in the data set with HOP-62 it was 1.3 µM. Besides, the IC50 in the data set on DU-145 was determined as 37 µM; with MDA-MB-435, 96 µM. Further, the “induction of topoisomerase II cleavage complexes” value (from here on “induction”) in the data set with human topoisomerase II was “no effect”. Also, the DNA unwinding result with supercoiled SV40 DNA is listed as “did not produce detectable DNA unwinding; also recorded: does not appear to unwind DNA”. Also, the “reversal of induced cleavage sites by salt treatment” value (“reversal of induced cleavage sites” below) in data set [2] is “reversed by salt treatment”. Besides, at topoisomerase I, the “activity in the topoisomerase I cleavage assay (in words)” value (from here on “activity”) is reported as “induce DNA cleavage in the presence of topoisomerase I; also recorded: good activity”. Besides, at topoisomerase I, the “Top 1 Cleavage” value was “++ (those compounds having greater than 50% of the activity of 1 μM camptothecin)”.
Molecule `COc1cc2c3c(n(CCCCO)c(=O)c2cc1OC)-c1cc2c(cc1C3=O)OCO2` [Compound 19a, 5,6-Dihydro-5,11-diketo-6-(4-hydroxybut-1-yl)-2,3-dimethoxy-8,9-methylenedioxy-(11H)indeno[1,2-c]isoquinoline] yielded a melting point of 304 to 308 °C. Besides, in the data set on HCT-116 (Homo sapiens), the IC50 came out at 1.4 µM. Moreover, the “induction” value in the data set on human topoisomerase II was “no effect”. In addition, the IC50 with UACC-62 (Homo sapiens) worked out at 0.99 µM. For the same molecule, the DNA unwinding result in the data set on supercoiled SV40 DNA was “does not appear to unwind DNA”. Also, the IC50 in [1] (Homo sapiens) worked out at 3.2 µM. Also, the “cytotoxicity (MGM) relative to lead compound 1” value in data set [1] (comparison in words) is recorded as “lower MGM than the lead compound 1”. For the same molecule, in data set [2], the “reversal of induced cleavage sites” value is recorded as “reversed by salt treatment”. Besides, in the data set with HOP-62 (Homo sapiens), the IC50 was 0.7 µM. For the same molecule, on topoisomerase I, the “activity” value is reported as “rival the topoisomerase activity of 1”; the “Top 1 Cleavage” value was “+ (those compounds having between 20% and 50% of the activity of 1 μM camptothecin)”. Also, the IC50 with OVCAR-3 is 3.7 µM. Also, in the data set on DU-145 (Homo sapiens), the IC50 was 0.36 µM. Moreover, the IC50 with MDA-MB-435 (Homo sapiens) was found to be 10 µM.
Consider `COC1=CC2=C(CN1OC)C1=C(c3cc4c(cc3C1=O)OCO4)C(CCCC(C)O)C2=O` (centres unmarked) [Compound 19b, 5,6-Dihydro-6-(4-hydroxypent-1-yl)-5,11-diketo-2,3-dimethoxy-8,9-methylenedioxy-11H-indenoisoquinoline], for which the melting point lay within 288 to 290 °C.
On to `O=C(O)CCCn1c2c(c3ccccc3c1=O)C(=O)c1ccccc1-2` [Compound 26, 6-(3-Carboxy-1-propyl)-5,6-dihydro-5,11-diketo-11H-indeno[1,2-c]isoquinoline], for which the IC50 in the data set with HCT-116 (Homo sapiens) was 40 µM; in the data set on UACC-62 (Homo sapiens), 73 µM; with SN12C (Homo sapiens) it was 27 µM; in data set [1] (Homo sapiens), 48 µM; in the data set with HOP-62 (Homo sapiens) it was 87 µM; in the data set on OVCAR-3, above 100 µM. Moreover, the IC50 in the data set on DU-145 (Homo sapiens) was 48 µM; in the data set with MDA-MB-435 (Homo sapiens) it was above 100 µM. The “induction” value in the data set on human topoisomerase II was “induced topoisomerase II cleavage complexes”. Further, the “DNA unwinding at higher concentrations” value with supercoiled SV40 DNA (at higher concentrations) is “does unwind DNA”. For the same molecule, the “reversal of induced cleavage sites” value in [2] is “reversed by salt treatment”. In addition, the “activity” value at topoisomerase I was “most potent; also recorded: rival the topoisomerase activity of 1”. Also, the “Top 1 Cleavage” value on topoisomerase I was “++ (those compounds having greater than 50% of the activity of 1 μM camptothecin)”.
